# Where two headings read alike, the source gives them in different places.
# Columns and labels:
# Assay type in all cases: cell-based
# E. coli DH10B = assay: CLSI broth microdilution MIC, E. coli DH10B recipient; details: Escherichia coli, read-out: MIC
# Procedure: (§1) MICs of the four tested compounds and comparators (amikacin, cefepime, colistin, meropenem and tigecyline) were determined by CLSI broth microdilution using pre-prepared plates (Trek Diagnostic Systems) (CLSI Approved Standard M7-A10). Carbapenemase and mcr-1 genes were detected by PCR or sequencing. Efflux levels in P. aeruginosa isolates were inferred by interpretive reading of antibiogram data.
# Enterobacteriaceae = assay: CLSI broth microdilution MIC, multiresistant Enterobacteriaceae panel; details: for MIC, peak of unimodal distribution: 68 Enterobacteriaceae, FIG. 1
# Procedure: (§2) Four compounds, including Compound Nos. 120 and 162 of the present application (RX-04B and RX-04C, respectively) were tested against (i) multiresistant Enterobacteriaceae and Acinetobacter with carbapenemases; (ii) Enterobacteriaceae with MCR-1; and (iii) P. aeruginosa with altered efflux (see Tables 4 and 5). In this case, MCR-1 is relevant because its activity reduces the negative charge of lipopolysaccharides, potentially affecting binding of poly-basic molecules such as the compounds tested herein, as well as polymyxins.
# as §1
# [1] = system: E. coli DH10B mcr-1 transformant; assay: CLSI broth microdilution MIC, E. coli DH10B mcr-1 transformant; details: Escherichia coli
# Procedure: as §1
# MCR-1 isolates = assay: CLSI broth microdilution MIC, Enterobacteriaceae with MCR-1; details: all MCR-1 isolates (n=14), FIG. 3
# Procedure: as §2, §1
# A. baumannii = assay: CLSI broth microdilution MIC, A. baumannii
# Procedure: as §2, §1
# CPE = assay: CLSI broth microdilution MIC, carbapenemase-producing Enterobacteriaceae (CPE); details: 35/36 (97%) of CPE, FIG. 2
# Procedure: as §2, §1
# P. aeruginosa = assay: CLSI broth microdilution MIC, P. aeruginosa with altered efflux
# Procedure: as §2, §1
# [2] = Pseudomonas aeruginosa, almost half (48%) of the MICs, FIG. 5, read-out: MIC
SMILES,MIC (E. coli DH10B) [µg/mL],"MIC, peak of unimodal distribution (Enterobacteriaceae) [mg/L]",MIC [1] [µg/mL],MIC relative to the MIC for E. coli ATCC 25922 (MCR-1 isolates) [fold],"MIC (A. baumannii; Acinetobacter baumannii, 7/10 values, read-out: MIC) [µg/mL]",MIC (A. baumannii; MICs mostly (summary)) [µg/mL],MIC (Enterobacteriaceae; 67/68 (>98%) MICs) [µg/mL],MIC (Enterobacteriaceae; MICs mostly (summary)) [µg/mL],MIC relative to the MIC for E. coli ATCC 25922 (CPE) [fold],MIC (P. aeruginosa; MICs mostly (summary)) [µg/mL],MIC change in isolates with elevated efflux (P. aeruginosa; P. aeruginosa isolates with elevated efflux),"MIC (P. aeruginosa; Pseudomonas aeruginosa, 19/20 (95%) isolates, read-out: MIC) [µg/mL]","relative activity among analogues (A. baumannii; 10 A. baumannii, FIG. 4)",MIC (P. aeruginosa; [2]) [µg/mL]
CSc1cc(-n2cc3cc(-c4cc(CCC[C@@H](N)C5CC5)cc(Cl)c4F)[nH]c3nc2=O)ccc1[C@@H]1CCC[C@@H](CCNC(=N)N)N1 [RX-04B],0.5,1,0.5,,,,,,,,,,,
C[C@H](N)CCCc1cc(OC(F)(F)F)c(F)c(-c2cc3cn(-c4ccc([C@@H]5CCC[C@@H](CCNC(=N)N)N5)cc4)c(=O)nc3[nH]2)c1 [RX-04A],0.25,1,0.25,≤ 2,1 to 2,1 to 2,0.25 to 2,1 to 2,≤ 4,1 to 4,not raised,1 to 4,,
C[C@H](N)CCCc1cc(Cl)c(F)c(-c2cc3cn(-c4ccc([C@@H]5CCC[C@@H](CCNC(=N)CN)N5)cc4)c(=O)nc3[nH]2)c1 [RX-04D],1,2,1,,,,,,,,,,least active analogue,≥ 16
N=C(N)NCC[C@@H]1CCC[C@@H](c2ccc(-n3cc4cc(-c5cc(CCC[C@@H](N)CO)cc(Cl)c5F)[nH]c4nc3=O)cc2F)N1 [RX-04C],0.5,2,0.5,,,,,,,,,,,≥ 16
